Assay results: a compilation of properties of binary mixtures (doi:10.1016/j.fluid.2017.10.015)
Values joined by “and” are separate entries in the source; they are usually repeats but may differ in a detail not shown here. Equal values may be shown once.

Test: xn = mol fraction of the nth substance listed
Details: 100 kPa

Structure (SMILES) | electrical conductivity (328.15 K, x1 = 0.0001) | electrical conductivity (298.15 K, x2 = 0) | electrical conductivity (308.15 K, x2 = 0) | electrical conductivity (318.15 K, x2 = 0) | electrical conductivity (328.15 K, x2 = 0) | electrical conductivity (298.15 K, x1 = 0.0001) | electrical conductivity (308.15 K, x1 = 0.0001) | electrical conductivity (318.15 K, x1 = 0.0001)
CCCCCCCCCCCC[N+]1(C)CCCCC1.O=C([O-])c1ccccc1O + O | 0.0271 S/m | – | – | – | – | – | – | –
O + CCCCCCCCCCCC[N+]1(C)CCCC1.O=C([O-])c1ccccc1O | – | 0.0089 S/m and 0.0093 S/m and 0.0105 S/m | 0.0116 S/m and 0.0126 S/m and 0.0139 S/m | 0.0153 S/m and 0.0171 S/m | 0.0172 S/m and 0.0186 S/m and 0.0212 S/m | – | – | –
CCCCCCCCCCCC[N+]1(C)CCCC1.O=C([O-])c1ccccc1O + O | 0.0231 S/m and 0.0293 S/m | – | – | – | – | 0.0115 S/m | 0.0161 S/m | 0.0185 S/m and 0.0235 S/m
